# Patent US20220032023A1, “ULTRA-SHARP MICRONEEDLE” (THE TRUSTEES OF COLUMBIA UNIVERSITY IN THE CITY OF NEW YORK, priority 2019, published 2022)
# Read-outs that look alike come from different tables or passages of the source.
# System: guinea pig perilymph proteome
# Description: Animals were treated and sampled independently, and perilymph samples were stored at −80° C. and processed for proteomics analysis upon collection of all samples.
# Dexamethasone Treatment of Animals. […] Twenty-two juvenile guinea pigs of either sex weighing between 150 and 300 g were obtained from a commercial vendor (Charles River Laboratories, Inc., Wilmington, Mass.).
# Eight animals were assigned to the control group and were not given any treatment prior to aspiration. […] Guinea pigs were anesthetized with isoflurane gas (3.0% for induction and 1.0-3.0% for maintenance). […] The guinea pig remained under isoflurane anesthesia in a left lateral decubitus position for 30 min. The guinea pig was then allowed to recover in its cage until the aspiration procedure.
# Aspiration Procedure. All guinea pigs underwent the aspiration procedure detailed below. […] All procedures were performed on the right ear. Guinea pigs were anesthetized with isoflurane gas (3.0% for induction and 1.0-3.0% for maintenance). Lidocaine was injected subcutaneously for local anesthesia. Buprenorphine sustained release (0.1 mg/kg) and meloxicam (0.5 mg/kg) were both administered subcutaneously prior to surgery for postoperative analgesia. To reduce head motion from breath cycles, head fixation was achieved using a modular 3D-printed head holder with two pointed screws placed anterior to the external auditory meatus and posterior to the orbit without piercing the skin.
# A scalpel was used to create a 1 cm postauricular incision. Blunt dissection was used to expose the bulla. A 1 mm drill tip fixed onto a Stryker S2 πDrive drill (Stryker, Kalamazoo, Mich.) was used to create a small opening into the middle ear space. Additional bone was removed using forceps to enlarge the opening to 2-3 mm in diameter for optimal visualization of the RWM. A hollow microneedle, mounted onto the tip of a 2 in. long, 30 gauge, blunt small hub removable needle (Hamilton Company, Reno, Nev.), was secured onto a 10 μL Gastight Hamilton syringe (Model 1701 RN, Hamilton Company, Reno, Nev.). The syringe was mounted onto a UMP3 UltraMicroPump (World Precise Instruments, Sarasota, Fla.), and the pump was fixed to a micromanipulator. Using the micromanipulator, the mounted hollow microneedle was slowly advanced toward the RWM and the perforation was confirmed by visualization.
# Using the UltraMicroPump, 1 μL of perilymph was aspirated across theRWMover 45 s. The sample was ejected into a 0.5 mL LoBind Microcentrifuge tube (Eppendorf, Hamburg, Germany) containing 2 μL of 1% protease cocktail inhibitor solution (P8340, Sigma-Aldrich, St. Louis, Mo.) in liquid chromatography/mass spectrometry grade water (Optima, ThermoFisher Scientific, Fair Lawn, N.J.) and stored at −80° C. Seventy-two hours after aspiration, animals were sacrificed with pentobarbital overdose.
# Proteomics Analysis. All perilymph samples (1 μL) were stored at −80° C. and then processed as described previously. Briefly, samples were purified with a methanol chloroform protein precipitation as previously described. Proteins were resuspended in 8 M urea, 3 mM dithiothreitol (DTT), 100 mM ammonium bicarbonate in liquid chromatography/mass spectrometry grade water, reduced with dithiothreitol, and alkylated with iodoacetamide. For proteolytic digestion, samples were diluted 5-fold in 100 mM ammonium bicarbonate and then digested using sequencing grade trypsin (Promega V511) at a protease/protein ratio of 1:50 at 37° C. for 16 h as described previously. Samples were then desalted with Nest Group C18 Macrospin columns (Southborough, Mass.). Resulting peptides were analyzed by liquid chromatography/mass spectrometry as described previously.
smiles,measurement,setting,value
"C[C@@H]1C[C@H]2[C@@H]3CCC4=CC(=O)C=C[C@]4(C)[C@@]3(F)[C@@H](O)C[C@]2(C)[C@@]1(O)C(=O)COP(=O)(O)O [Dex, Dexamethasone sodium phosphate]",number of perilymph proteins downregulated compared to control,IP Dex group,6 proteins
same,number of perilymph proteins upregulated compared to control,IP Dex group,8 proteins
same,number of perilymph proteins modulated compared to control,"IP Dex group, of 175 proteins analysed",14 proteins
same,number of perilymph proteins downregulated compared to control,IT Dex group,two
same,number of perilymph proteins upregulated compared to control,IT Dex group,one
same,number of perilymph proteins modulated compared to control,"IT Dex group, of 175 proteins analysed",three
same,number of perilymph proteins modulated compared to control,"by either IP Dex or IT Dex, overall",15 proteins
